Here are results for seven molecules from ChEMBL document CHEMBL1201862, “PubChem BioAssay data set” (2004).

What is called GI50 is the concentration giving 50% growth inhibition.

Holding throughout (assay): DTP human tumour cell line panel, 48 h
Test [1] has as its system SF-539.
The subject of test [2] is COLO 205.
In test [3] the test system is SR.
Test [4] concerns UACC-62.
In test [5] the test system is SK-MEL-28.
Test [6] has as its system RPMI-8226.
The subject of test [7] is MDA-MB-231.
Test [8] relates to KM12.
The subject of test [9] is OVCAR-5.
In test [10] the test system is PC-3.
Test [11] deals with SK-MEL-2.
In test [12] the test system is MDA-MB-435.
Test [13] has as its system NCI-H522.
The subject of test [14] is TK-10.
Test [15] has as its system Malme-3M.
The test system of test [16] is SW-620.
The subject of test [17] is ACHN.
Test [18] deals with SF-268.
In test [19] the test system is SNB-19.
The subject of test [20] is UACC-257.

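Interpolation was linear, between the two tested concentrations surrounding the appropriate level; five concentrations were tested over 48 hours in 96-well plates. GI50 marks 50% less growth.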 Activity calls are given as the source filed them. Rule as the data show it: active = GI50 up to about 1.1 µM and inactive = higher.

In the case of `CCOc1ccc(/N=N/C2C(=O)N(C(=O)CC(=O)Nc3ccc(Cl)cc3)N=C2C)cc1` (configuration not stated), the GI50 in test [1], in [2], in test [3], in test [4], in test [5] and in test [6] was > 100 µM (inactive) throughout. Further, the GI50 in test [7], in test [8], in test [9], in test [10], in test [11] and in test [12] was > 100 µM (inactive) in each case. Also, the GI50 in test [13], in test [14], in test [15], in [16], in [17] and in test [18] was > 100 µM (inactive) each time.

`CC(=O)NC1C(OCc2ccccc2)OC(CO)C(O)C1OCC(=O)NC(C(=O)NC(CCC(=O)NCCCCCC(=O)Nc1ccc2c(c1)CN1C(=O)c3ccccc3C1=N2)C(N)=O)C(C)C` (configuration not stated): the GI50 is 19.1 µM (inactive) in test [1]; 47 µM (inactive) in test [2]; 88.1 µM (inactive) in test [3]; 20.9 µM (inactive) in test [19]; 20.9 µM (inactive) in [4]; 25.9 µM (inactive) in test [20]. Further, the GI50 in test [5] was 20.8 µM (inactive); in test [6], 97.7 µM (inactive); in test [7] it was 25.5 µM (inactive); in test [8] it was 19.1 µM (inactive); in test [9], > 100 µM (inactive); in test [10], 28.5 µM (inactive). In addition, the GI50 in test [11] was 27.1 µM (inactive); in test [12] it was 31.6 µM (inactive); in [14], 18.3 µM (inactive); in [15] it was 23.8 µM (inactive); in test [16], 50.6 µM (inactive); in [17] it was 46.3 µM (inactive). Moreover, the GI50 in [18] is 19.7 µM (inactive).

For the molecule `CCN1c2cc(Br)cc3[nH]c(=O)n(c23)CCC1C` (configuration not stated), the GI50 in [1] was 34.2 µM (inactive); in [2], 14.9 µM (inactive); in [3] it was 6.56 µM (inactive); in [19], 23.2 µM (inactive); in test [4], 5.16 µM (inactive); in test [20], 17.4 µM (inactive). Also, the GI50 in test [5] is 18.7 µM (inactive); in test [6] it was 10.3 µM (inactive); in test [7] it was 17.3 µM (inactive); in [8], 15.1 µM (inactive); in [9], 20.2 µM (inactive); in test [10] it was 17.2 µM (inactive). For the same molecule, the GI50 is 15.6 µM (inactive) in test [11]; 4.18 µM (inactive) in test [12]; 15.9 µM (inactive) in test [14]; 21.5 µM (inactive) in test [15]; 5.48 µM (inactive) in test [16]; 19.5 µM (inactive) in [17]. The GI50 in test [18] is 14.2 µM (inactive).

For `Cc1cn(CC2(CO)CCC2)c(=O)[nH]c1=O`, the GI50 in [1], in test [2], in test [3], in test [4], in [20] and in [5] was > 100 µM (inactive) each time. The GI50 in test [6], in test [7], in test [8], in test [9], in test [10] and in test [11] was > 100 µM (inactive) in each case. The GI50 in test [12], in test [13], in [14], in [15], in test [16] and in [17] was > 100 µM (inactive) each time. Also, in [18], the GI50 is > 10 µM (inactive).

For the molecule `Cn1c2ccccc2c2c3c(c4c5ccccc5n(C)c4c21)C(=O)N(c1ccccc1)C3=O`, the GI50 in test [1], in test [2], in test [3], in test [19], in test [4] and in test [20] was > 100 µM (inactive) in each case. The GI50 in test [5], in [6], in [7], in test [8], in test [9] and in [10] was > 100 µM (inactive) in each case. Also, the GI50 was > 100 µM (inactive) in test [11]; > 100 µM (inactive) in test [12]; 44.4 µM (inactive) in test [13]; > 100 µM (inactive) in [14]; > 100 µM (inactive) in test [15]; > 100 µM (inactive) in [16]. The GI50 in test [17] was > 100 µM (inactive).

Regarding `CC(=O)OCCC1c2ccccc2-n2nc(-c3ccccc3)c(O)c21` (configuration not stated), the GI50 in test [1] is 21.6 µM (inactive); in test [2] it was 20.1 µM (inactive); in test [3], 11.4 µM (inactive); in test [19], 14.6 µM (inactive); in test [20], 16.8 µM (inactive); in [5], 16.2 µM (inactive). Further, the GI50 in test [6] is 8.07 µM (inactive); in [7], 19.3 µM (inactive); in test [8], 16.6 µM (inactive); in [9], 19.3 µM (inactive); in test [10], 17.3 µM (inactive); in test [11] it was 27.1 µM (inactive). Further, the GI50 in [12] is 16.9 µM (inactive); in test [13], 16.6 µM (inactive); in test [14], 22.1 µM (inactive); in [15], > 10 µM (inactive); in [16], 15.8 µM (inactive); in test [17], 19.1 µM (inactive). Moreover, the GI50 in test [18] was 34.7 µM (inactive).

On to `Clc1ccc(Cc2nc3ccccc3nc2-c2cccc(Cl)c2)cc1`, for which the GI50 in test [1] is 2.25 µM (inactive); in test [2], 2.8 µM (inactive); in [3], 1.54 µM (inactive); in [19], 1.8 µM (inactive); in test [4], 1.86 µM (inactive); in [20], 13.8 µM (inactive). Besides, the GI50 in test [6] is 0.405 µM (active); in test [7], 2.47 µM (inactive); in test [8], 3.48 µM (inactive); in [9] it was 7.38 µM (inactive); in test [10], 2.26 µM (inactive); in [11] it was 3.24 µM (inactive). Besides, the GI50 in test [12] was 1.95 µM (inactive); in [13], 1.61 µM (inactive); in [14] it was 12.3 µM (inactive); in test [15] it was 2.25 µM (inactive); in test [16] it was 1.61 µM (inactive); in test [17], 1.93 µM (inactive). Besides, the GI50 in [18] is 18.3 µM (inactive).
